These results are taken from US20140255361A1, “ESTROGEN-RECEPTOR BASED LIGAND SYSTEM FOR REGULATING PROTEIN STABILITY” (The Board of Trustees Of The Leland Stanford Junior …, priority 2013, published 2014).

Substitutions are numbered along the chain they refer to. Read-outs that look alike come from different tables or passages of the source.

Assay [1] deals with T1, GFP-ERLID fusion protein (Homo sapiens, UniProt P03372).
T1 sequence (P03372 with tags, fused parts or gaps): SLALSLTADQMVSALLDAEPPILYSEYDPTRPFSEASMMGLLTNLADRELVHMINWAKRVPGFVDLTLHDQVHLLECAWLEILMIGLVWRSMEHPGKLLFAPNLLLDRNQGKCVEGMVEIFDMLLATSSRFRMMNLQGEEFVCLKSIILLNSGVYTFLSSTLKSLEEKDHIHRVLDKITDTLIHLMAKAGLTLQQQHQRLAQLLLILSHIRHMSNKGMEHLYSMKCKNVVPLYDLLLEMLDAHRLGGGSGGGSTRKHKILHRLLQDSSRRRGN

For assay [2], the target named is T2, four point mutant of the estrogen receptor ligand binding domain (L384M, M421G, G521R and Y437S) fused to GFP (Homo sapiens, UniProt P03372, G521R/L384M/M421G/Y537S).
T2 sequence (P03372 with tags, fused parts or gaps L384M/M421G/G521R/Y537S): T1 sequence (P03372 with tags, fused parts or gaps) with L80M, M117G, G217R, Y233S
Conditions: cross-hatched bars, FIG. 7A.

Assay [3] has as its target GFP-ERLID (Homo sapiens, UniProt P03372).
The target in assay [4] is HA-Bax-ERLID (Homo sapiens, UniProt P03372).
Assay [5] addresses HA-hRPA2-ERLID (Homo sapiens, UniProt P03372).
For assay [6], the target named is HA-hUBC13-ERLID (Homo sapiens, UniProt P03372).
Assay [7] has as its target T3, estrogen receptor ligand binding domain mutants (four and six mutations) (Homo sapiens, UniProt P03372, G521R/L384M/M421G/N519S/T371A/Y537S).
T3 construct: residues 305-549 of estrogen receptor-1, ERS1; YFP or GFP reporter
T3 sequence (P03372 305-549 T371A/L384M/M421G/N519S/G521R/Y537S): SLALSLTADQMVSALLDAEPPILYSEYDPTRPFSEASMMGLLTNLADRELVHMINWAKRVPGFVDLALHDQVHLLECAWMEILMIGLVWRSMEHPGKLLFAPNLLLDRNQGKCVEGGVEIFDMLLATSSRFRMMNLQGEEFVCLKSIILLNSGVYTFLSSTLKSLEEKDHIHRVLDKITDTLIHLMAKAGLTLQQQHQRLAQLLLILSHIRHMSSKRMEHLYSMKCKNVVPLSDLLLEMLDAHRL
As to the kind of experiment: Drug-dependent stability of ERLBD mutant clones with YFP or GFP reporter. The assay is classed as cell-based. As to conditions: relative to the parent ESR1 sequence.

For assay [8], the system named is wild-type ER LBDs. Conditions: cited from earlier work.
Assay [9] deals with GFP-LID. As to the kind of experiment: Stability of GFP-LID fusion protein by flow cytometry (MFI) in NIH3T3 cells. The assay is classed as cell-based. As to conditions: 1 μM Shield-1, 24 hours, FIG. 2. From the text: (§1) In studies conducted in support of the invention, and with reference to the Materials and Methods set forth in the Examples section below, the stabilities of two LID domain fusion proteins, a first generation construct based on the FKBP protein, here called “GFP-LID” and a next-generation construct having improved characteristics, here called “GFP-LID #15” were compared. […] For this study, NIH3T3 fibroblast cells were infected with retrovirus expressing GFP-LID or GFP-LID #15. Transduced NIH3T3 cells were treated with or without 1 μM Shield-1 for 24 hours. The fluorescence intensities of these GFP fusions were analyzed by flow cytometry. The median fluorescence intensity (MFI) was used to determine the stability of the GFP fusion proteins.
(§2) The INX ecotropic packaging cell line was transfected using standard Lipofectamine 2000 protocols. Viral supernatants were harvested 48 h post-transfection, filtered. NIH3T3 cells were incubated with the retroviral supernatants supplemented with 4 μg/ml polybrene for 4 h at 37° C. Cells were washed once with PBS and cultured in growth media for 48 hrs to allow for viral integration, then assayed as described.
(§3) Twenty-four hours prior to analysis, transduced NIH3T3 cells were plated at 1×10^5 cells per well of a 12-well plate. […] Cells were analyzed at the Stanford Shared FACS Facility using Vantoo or LSRII with 10,000 events represented.
On the technique in general: A flow cytometer gives signals particle by particle.

Assay [10] concerns GFP-LID #15. As to the kind of experiment: Stability of GFP-LID #15 fusion protein by flow cytometry (MFI) in NIH3T3 cells. The assay is classed as cell-based. As to conditions: 1 μM Shield-1, 24 hours, FIG. 2.
Text: as §1, §2, §3

Assay [11] concerns YFP-FKBP12 LID domain fusion protein. As to the kind of experiment: FACS screen of YFP fused to extended FKBP12 (LID domain) in NIH3T3 cells. The assay is classed as cell-based, mouse. From the text: Human […] protein was modified to include a 19-residue peptide extension at the C-terminus of the FKBP12 protein. Genetic diversity was engineered into this C-terminal extension using synthetic oligonucleotides and PCR, and this library of extended FKBP genes was fused to the 3′-end of the YFP gene. A library of plasmids was stably introduced into NIH3T3 cells using retrovirus, and FACS was used to screen the transduced cells for cells expressing YFP in the absence of the small molecule ligand Shield-1. […] This domain is identified herein by SEQ ID NO: 1.

Where [12] appears, read: SEQ ID NO: 3 fused to GFP, open bars, FIG. 7A.

As for 4-hydroxytamoxifen [4-OHT], in [1], the “stability of GFP-ERLBD (MFI) as a function of amount of ligand” value is recorded as “dose dependent destabilization”, the “stability of GFP-ERLID fusion protein (MFI)” value is listed as “induces degradation”, the “stability of fusion protein (MFI) after E2 washout with 4-hydroxytamoxifen in the wash solution (E2 wo+4OHT)” value is on record as “destabilizes” and the “stability of fusion protein (MFI) after ligand exposure” value is recorded as “destabilizes”. Further, the “stability of wild type GFP-ERLID fusion protein (MFI)” value in assay [1] is on record as “destabilization”. The “stability of mutant fusion protein (MFI)” value in assay [2] is listed as “destabilization”. Moreover, in assay [3], the “level of fusion protein by Western blot” value is reported as “destabilized”. Further, the “level of fusion protein by Western blot” value in [4] was “destabilized”. Besides, the “level of fusion protein by Western blot” value in assay [5] was “destabilized”. Further, the “level of fusion protein by Western blot” value in [6] is reported as “destabilized”.

In the case of `O=C1CCC2(Cc3ccc(Cl)cc3)Cc3cc(O)ccc3C2=C1c1ccc(OCCN2CCCCC2)cc1` (stereo not shown) [CMP8, 9a-(4-Chlorobenzyl)-7-hydroxy-4-[4-(2-piperidin-1-ylethoxy)phenyl]-1,2,9,9a-tetrahydro-3H-fluoren-3-one], in [7], the “dynamic range of stability in the presence of ligand” value is given as “large dynamic”. Further, the “stability of wild type GFP-ERLID fusion protein (MFI)” value in assay [1] (setting [12]) is given as “destabilization”. In addition, the “stability of mutant fusion protein (MFI)” value in [2] was “destabilization”. In addition, in assay [8], the “binding to wild-type ER LBDs” value is listed as “does not bind well”.

On to `CC[C@H](C(=O)N1CCCC[C@H]1C(=O)O[C@H](CCc1ccc(OC)c(OC)c1)c1cccc(OCCN2CCOCC2)c1)c1cc(OC)c(OC)c(OC)c1` [Shield-1], for which the “stability of GFP fusion protein (median fluorescence intensity)” value in [9] and in [10] was “destabilized” in each case. The “YFP levels on addition of ligand” value in assay [11] is “dropped significantly”.

`C[C@]12CC[C@@H]3c4ccc(O)cc4C[C@@H](CCCCCCCCC[S+]([O-])CCCC(F)(F)C(F)(F)F)[C@H]3[C@@H]1CC[C@@H]2O` (stereo partly shown) [fulvestrant]: in [1] (10 μM fulvestrant, NIH3T3 cells, FIG. 4), the “stability of GFP-ERLID fusion protein” value was “induced degradation”. The “stability of wild type GFP-ERLID fusion protein (MFI)” value in [1] (setting [12]) is on record as “destabilization”.
